Measured values: patent US20240150293A1, “SPIROCYCLOHEXANE DERIVATIVES, PHARMACEUTICAL COMPOSITIONS CONTAINING THEM AND THEIR USES AS ANTI-APOPTOTIC INHIBITORS” (LES LABORATOIRES SERVIER, priority 2021, published 2024)
Where two headings read alike, the source gives them in different places.

Experiments:
[1] = molecular target: Cy5-labelled Mcl1 (amino acids 171-321) C286S protein (UniProtKB Q07820) (Homo sapiens (Human), UniProt Q07820, C286S); assay: Inhibition of Mcl-1 by the fluorescence quenching assay (Example A, Method B); type: binding
Summary of the method: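 Eleven-point compound series incubated 2 h at room temperature with 1 nM Cy5-tagged protein and quencher-labelled PUMA peptide at 10, 20 or 400 nM in HEPES/NaCl/Tween 20, pH 7.4, 5% DMSO. IC50 for 50% fluorescence increase by 4-parameter fit, then Ki derived (complete cKi or estimated eKi).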

[2] = test system: NCI-H929 cell lines; assay: In vitro cytotoxicity, CellTiter-Glo (CTG) assay (Example B, Method B); type: cell-based; conditions: NCI-H929 cells, 48 h incubation, read-out: C50
Method: Cellular viability was monitored with the cell viability assay (Cell Titer-Glo®) on NCI-H929 cell lines. The CellTiter-Glo® (CTG) Luminescent Cell Viability Assay (from Promega) is a homogeneous method to determine the number of viable cells in culture based on quantitation of the ATP present, which signals the presence of metabolically active cells.
Concentration response of test compounds are performed with 10 mM stock solutions (DMSO), 11-points curve, in a 384-well compound plate. The assay plate is prepared by stamping 120 nL from compound dilution plate of all different concentrations (e.g. 10 mM to have final 30 μM assay test) into a cell culture microplate, using Echo acoustic liquid handling (Labcyte, Beckman). 40 μl of cell solution is added and cells are incubated with compounds for 48 h at 37° C., 5% CO2. CTG was added to the cells (according to the manufacturer instructions) and luminescence intensity was recorded using the Pherastar plate reader (BMG).
This assay provides in vitro cellular efficacy of compounds of Formula (I) tested, measuring the C50, defined as the concentration needed to reach 50% of the cellular viability.

Cy5-labelled Mcl1 (amino acids 171-321) C286S protein, sequence (Q07820 171-321 C286S): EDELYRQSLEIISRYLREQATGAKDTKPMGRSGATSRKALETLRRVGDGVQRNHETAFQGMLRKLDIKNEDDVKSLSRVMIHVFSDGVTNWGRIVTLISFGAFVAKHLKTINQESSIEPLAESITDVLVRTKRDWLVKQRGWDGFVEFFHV

Row | Ki [1] | Ki ([1]; Ki determined from IC50) | Structure (SMILES) | IC50 ([2]; Homo sapiens, NCI-H929, 48 h) | IC50 [2]
1 | 0.00893 nM | – | C[C@@H](COc1ccnc2c1[C@H](C)CCC2)C[C@H]1Cc2cc3c(cc2[C@]12CC[C@@](Nc1cccc(Cl)c1)(C(=O)O)CC2)O[C@@H](C)CO3 [Example 972, (1r,3'S,4S,7′S)-4-(3-chloroanilino)-3′-methyl-7′-[(2R)-2-methyl-3-{[(5R)-5-methyl-5,6,7,8-tetrahydroquinolin-4-yl]oxy}propyl]-2′,3′,7′,8′-tetrahydrospiro[cyclohexane-1,6′-indeno[5,6-b][1,4]dioxine]-4-carboxylic acid] | 31 nM | –
2 | 0.0117 nM | – | C[C@@H](COc1ccnc2c1[C@H](C)CC[C@H]2O)C[C@H]1Cc2cc3c(cc2[C@]12CC[C@@](Nc1cccc(Cl)c1)(C(=O)O)CC2)OCO3 [Example 959, (1r,4S,6′S)-4-(3-chloroanilino)-6′-[(2R)-3-{[(5R,8R)-8-hydroxy-5-methyl-5,6,7,8-tetrahydroquinolin-4-yl]oxy}-2-methylpropyl]-6′,7′-dihydro-2′H-spiro[cyclohexane-1,5′-indeno[5,6-d][1,3]dioxole]-4-carboxylic acid] | 28.7 nM | –
3 | 213 nM | – | C[C@@H](COc1ccnc2c1[C@H](C)CCC2)C[C@H]1Cc2cc3c(cc2[C@]12CC[C@@](Nc1cccc(Cl)c1)(C(=O)OCC(F)(F)F)CC2)OCO3 [Example 932, 2,2,2-trifluoroethyl (1r,4S,6′S)-4-(3-chloroanilino)-6′-[(2R)-2-methyl-3-{[(5R)-5-methyl-5,6,7,8-tetrahydroquinolin-4-yl]oxy}propyl]-6′,7′-dihydro-2′H-spiro[cyclohexane-1,5′-indeno[5,6-d][1,3]dioxole]-4-carboxylate] | 13600 nM | –
4 | 2.52 nM | – | CCC(=O)OC(C)OC(=O)[C@]1(Nc2cccc(Cl)c2)CC[C@@]2(CC1)c1cc3c(cc1C[C@@H]2C[C@@H](C)COc1ccnc2c1[C@H](C)CCC2)OCO3 (stereo partly drawn) [Example 940, 1-(propanoyloxy)ethyl (1r,4S,6′S)-4-(3-chloroanilino)-6′-[(2R)-2-methyl-3-{[(5R)-5-methyl-5,6,7,8-tetrahydroquinolin-4-yl]oxy}propyl]-6′,7′-dihydro-2′H-spiro[cyclohexane-1,5′-indeno[5,6-d][1,3]dioxole]-4-carboxylate] | 266 nM | –
5 | 142 nM | – | C[C@@H](COc1ccnc2c1[C@H](C)CCC2)C[C@H]1Cc2cc3c(cc2[C@]12CC[C@@](Nc1cccc(Cl)c1)(C(=O)OCC(=O)N(C)C)CC2)OCO3 [Example 936, 2-(dimethylamino)-2-oxoethyl (1r,4S,6′S)-4-(3-chloroanilino)-6′-[(2R)-2-methyl-3-{[(5R)-5-methyl-5,6,7,8-tetrahydroquinolin-4-yl]oxy}propyl]-6′,7′-dihydro-2′H-spiro[cyclohexane-1,5′-indeno[5,6-d][1,3]dioxole]-4-carboxylate] | 6840 nM | –
6 | 0.0764 nM | – | CCCC1COc2cc3c(cc2OC1)[C@]1(CC[C@@](Nc2cccc(Cl)c2)(C(=O)O)CC1)[C@@H](C[C@@H](C)COc1ccnc2c1[C@H](C)CCC2)C3 (single isomer, unassigned) [Example 991] | – | 162 nM
7 | 0.0244 nM | – | C[C@@H](COc1ccnc2c1[C@H](C)CCC2)C[C@H]1Cc2cc3c(cc2[C@]12CC[C@@](Nc1cccc(Cl)c1)(C(=O)O)CC2)O[C@@H](C)[C@H](C)O3 [Example 975, (1r,2′S,3'S,4S,7′S)-4-(3-chloroanilino)-2′,3′-dimethyl-7′-[(2R)-2-methyl-3-{[(5R)-5-methyl-5,6,7,8-tetrahydroquinolin-4-yl]oxy}propyl]-2′,3′,7′,8′-tetrahydrospiro[cyclohexane-1,6′-indeno[5,6-b][1,4]dioxine]-4-carboxylic acid] | 80.2 nM | –
8 | 0.023 nM | – | C[C@@H](COc1ccnc2c1[C@H](C)CCC2)C[C@H]1Cc2cc3c(cc2[C@]12CC[C@@](Nc1cccc(Cl)c1)(C(=O)O)CC2)OC[C@@H](C)O3 [Example 974, (1r,2′R,4S,7′S)-4-(3-chloroanilino)-2′-methyl-7′-[(2R)-2-methyl-3-{[(5R)-5-methyl-5,6,7,8-tetrahydroquinolin-4-yl]oxy}propyl]-2′,3′,7′,8′-tetrahydrospiro[cyclohexane-1,6′-indeno[5,6-b][1,4]dioxine]-4-carboxylic acid] | 60.4 nM | –
9 | 0.0109 nM | – | C[C@@H](COc1ccnc2c1[C@H](C)CC[C@H]2O)C[C@H]1Cc2cc3c(cc2[C@]12CC[C@@](Nc1cccc(Cl)c1)(C(=O)O)CC2)OCCO3 [Example 962, (1r,4S,7′S)-4-(3-chloroanilino)-7′-[(2R)-3-{[(5R,8R)-8-hydroxy-5-methyl-5,6,7,8-tetrahydroquinolin-4-yl]oxy}-2-methylpropyl]-2′,3′,7′,8′-tetrahydrospiro[cyclohexane-1,6′-indeno[5,6-b][1,4]dioxine]-4-carboxylic acid] | 42.8 nM | –

The remaining lines, values behind:

Row | Structure (SMILES) | Ki [1] | Ki ([1]; Ki determined from IC50) | IC50 ([2]; Homo sapiens, NCI-H929, 48 h) | IC50 [2]
10 | COc1cccc(-c2ccc3c(c2)[C@]2(CC[C@@](Nc4cccc(Cl)c4)(C(=O)O)CC2)[C@@H](C[C@@H](C)COc2ccnc4c2[C@H](C)CCC4)C3)c1 [Example 877, (1r,2′S,4S)-4-(3-chloroanilino)-6′-(3-methoxyphenyl)-2′-[(2R)-2-methyl-3-{[(5R)-5-methyl-5,6,7,8-tetrahydroquinolin-4-yl]oxy}propyl]-2′,3′-dihydrospiro[cyclohexane-1,1′-indene]-4-carboxylic acid] | 0.642 nM | – | 505 nM | –
11 | CC(c1ccc(O)cc1)c1ccc2c(c1)[C@]1(CC[C@@](Nc3cccc(Cl)c3)(C(=O)O)CC1)[C@@H](C[C@@H](C)COc1ccnc3c1[C@H](C)CCC3)C2 (stereo partly drawn) [Example 885, (1r,2′S,4S)-4-(3-chloroanilino)-6′-[1-(4-hydroxyphenyl)ethyl]-2′-[(2R)-2-methyl-3-{[(5R)-5-methyl-5,6,7,8-tetrahydroquinolin-4-yl]oxy}propyl]-2′,3′-dihydrospiro[cyclohexane-1,1′-indene]-4-carboxylic acid] | 2.03 nM | – | 341 nM | –
12 | Cc1ccc2c(c1)C[C@H](C[C@@H](C)COc1ccnc3c1[C@H](C)CCC3)[C@]21CC[C@](Nc2cccc(Cl)c2)(C(=O)O)CC1 [Example 853, (1r,2′S,4S)-4-(3-chloroanilino)-5′-methyl-2′-[(2R)-2-methyl-3-{[(5R)-5-methyl-5,6,7,8-tetrahydroquinolin-4-yl]oxy}propyl]-2′,3′-dihydrospiro[cyclohexane-1,1′-indene]-4-carboxylic acid] | 0.0917 nM | – | 137 nM | –
13 | C[C@@H](COc1ccnc2c1[C@H](C)CCC2)CN1Cc2cc3c(cc2[C@]12CC[C@](Nc1cccc(Cl)c1)(C(=O)O)CC2)OCO3 [Example 45, (1r,4R)-4-(3-chloroanilino)-6′-[(2R)-2-methyl-3-{[(5R)-5-methyl-5,6,7,8-tetrahydroquinolin-4-yl]oxy}propyl]-6′,7′-dihydro-2′H-spiro[cyclohexane-1,5′-[1,3]dioxolo[4,5-f]isoindole]-4-carboxylic acid] | – | 300 nM | 24200 nM | –
14 | CC(=O)c1cc(C)c2c(c1)[C@]1(CC[C@@](Nc3cccc(Cl)c3)(C(=O)O)CC1)C(C[C@@H](C)COc1ccnc3c1[C@H](C)CCC3)C2 (single isomer, unassigned) [Example 757] | 1.9 nM | – | – | 200 nM
15 | CCOc1ccc2c(c1)[C@]1(CC[C@@](Nc3ccc(F)c(Cl)c3)(C(=O)O)CC1)[C@@H](C[C@@H](C)COc1ccnc3c1[C@H](C)CCC3)C2 [Example 785, (1r,2′S,4S)-4-(3-chloro-4-fluoroanilino)-6′-ethoxy-2′-[(2R)-2-methyl-3-{[(5R)-5-methyl-5,6,7,8-tetrahydroquinolin-4-yl]oxy}propyl]-2′,3′-dihydrospiro[cyclohexane-1,1′-indene]-4-carboxylic acid] | 0.122 nM | – | 61 nM | –
16 | C[C@@H](COc1c(Cl)cnc2c1[C@H](C)CCC2)C[C@H]1Cc2cc3c(cc2[C@]12CC[C@@](Nc1ccc(F)c(Cl)c1)(C(=O)O)CC2)OCO3 [Example 886, (1r,4S,6′S)-4-(3-chloro-4-fluoroanilino)-6′-[(2R)-3-{[(5R)-3-chloro-5-methyl-5,6,7,8-tetrahydroquinolin-4-yl]oxy}-2-methylpropyl]-6′,7′-dihydro-2′H-spiro[cyclohexane-1,5′-indeno[5,6-d][1,3]dioxole]-4-carboxylic acid] | 0.145 nM | – | 381 nM | –
17 | COCCCOc1cc2c(cc1Cl)C[C@H](C[C@@H](C)COc1ccnc3c1[C@H](C)CCC3)[C@]21CC[C@](Nc2cccc(Cl)c2)(C(=O)O)CC1 [Example 823, (1r,2′S,4S)-5′-chloro-4-(3-chloroanilino)-6′-(3-methoxypropoxy)-2′-[(2R)-2-methyl-3-{[(5R)-5-methyl-5,6,7,8-tetrahydroquinolin-4-yl]oxy}propyl]-2′,3′-dihydrospiro[cyclohexane-1,1′-indene]-4-carboxylic acid] | 0.108 nM | – | 128 nM | –
